Assay results from the supplement of paper PMC10307832.

What was measured:
Assay in all cases: relative viability (nuclei count vs DMSO), 5 days (fraction); higher = more cells survive
[1] = compound: O=C(/C=C/c1ccccc1)NC(NC(=S)Nc1cccc2cccnc12)C(Cl)(Cl)Cl [Salubrinal] + O=C(c1cc(Cc2n[nH]c(=O)c3ccccc23)ccc1F)N1CCN(C(=O)C2CC2)CC1 [Olaparib] (partner 8 µM)
In short: (§1)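 Each reported value is a median over duplicate plates. It expresses relative viability: treated-well nuclei count divided by vehicle-well nuclei count. Lung cancer cell lines in 1536-well plates were dosed by pin tool a day after seeding, alone with one drug or with a fixed anchor-drug dose plus five library-drug doses (not always all listed) in √10 steps, and nuclei were counted after 5 days.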

[2] = compound: O=C(/C=C/c1ccccc1)NC(NC(=S)Nc1cccc2cccnc12)C(Cl)(Cl)Cl [Salubrinal] + C[C@@H](Oc1cc(-c2cnn(C3CCNCC3)c2)cnc1N)c1c(Cl)ccc(F)c1Cl [Crizotinib] (partner 1 µM)
In short: as §1

[3] = compound: Cc1ccc2nc(NCCN)c3ncc(C)n3c2c1 + C[C@]1(O)C[C@@H](c2nc(-c3ccc4ccc(-c5ccccc5)nc4c3)c3c(N)nccn32)C1 [Linsitinib] (partner 1 µM)
In short: as §1

[4] = compound: O=C(/C=C/c1ccccc1)NC(NC(=S)Nc1cccc2cccnc12)C(Cl)(Cl)Cl [Salubrinal] + Nc1nc2[nH]cc(CCc3ccc(C(=O)N[C@@H](CCC(=O)O)C(=O)O)cc3)c2c(=O)[nH]1 [Pemetrexed] (partner 0.2 µM)
In short: as §1

Row | Cell Line | relative viability ([1]; first compound 0.08 µM) | relative viability ([1]; first compound 0.253 µM) | relative viability ([1]; first compound 0.8 µM) | relative viability ([1]; first compound 2.53 µM) | relative viability ([1]; first compound 8 µM) | relative viability ([2]; first compound 0.08 µM) | relative viability ([2]; first compound 0.253 µM) | relative viability ([2]; first compound 0.8 µM) | relative viability ([2]; first compound 2.53 µM) | relative viability ([2]; first compound 8 µM) | relative viability ([3]; first compound 0.04 µM) | relative viability ([3]; first compound 0.1265 µM) | relative viability ([3]; first compound 0.4 µM) | relative viability ([3]; first compound 1.265 µM) | relative viability ([3]; first compound 4 µM) | relative viability ([4]; first compound 0.08 µM) | relative viability ([4]; first compound 0.253 µM) | relative viability ([4]; first compound 0.8 µM) | relative viability ([4]; first compound 2.53 µM) | relative viability ([4]; first compound 8 µM)
1 | PC-14 | 0.278 | 0.258 | 0.259 | 0.246 | 0.25 | 0.927 | 0.853 | 0.935 | 0.885 | 0.914 | 0.962 | 0.957 | 0.947 | 0.964 | 0.9 | 0.114 | 0.154 | 0.147 | 0.124 | 0.108
2 | NCI-H650 | 0.438 | 0.45 | 0.474 | 0.385 | 0.381 | 0.701 | 0.656 | 0.792 | 0.637 | 0.765 | 0.852 | 0.828 | 0.994 | 0.911 | 0.69 | 1.03 | 1.14 | 1.05 | 1.05 | 0.895
3 | NCI-H1666 | 0.713 | 0.605 | 0.713 | 0.711 | 0.732 | 1.17 | 0.852 | 1.14 | 0.784 | 0.94 | 0.909 | 0.843 | 0.942 | 0.822 | 0.71 | 0.837 | 0.804 | 0.989 | 0.864 | 0.845
4 | NCI-H2085 | 0.804 | 0.742 | 0.765 | 0.76 | 0.745 | 0.901 | 0.804 | 0.789 | 0.813 | 0.834 | 0.894 | 0.941 | 0.928 | 0.862 | 0.87 | 1.03 | 0.88 | 0.923 | 0.941 | 0.867
